The results in this text go back to patent publication US20110150825A1, “USES OF SELECTIVE INHIBITORS OF HDAC8 FOR TREATMENT OF INFLAMMATORY CONDITIONS” (PHARMACYCLICS, INC., priority 2006, published 2011).

For one assay, the target named is T1, Caspase-1 (Homo sapiens, UniProt P29466).
T1 sequence (P29466 120-297 limits assumed): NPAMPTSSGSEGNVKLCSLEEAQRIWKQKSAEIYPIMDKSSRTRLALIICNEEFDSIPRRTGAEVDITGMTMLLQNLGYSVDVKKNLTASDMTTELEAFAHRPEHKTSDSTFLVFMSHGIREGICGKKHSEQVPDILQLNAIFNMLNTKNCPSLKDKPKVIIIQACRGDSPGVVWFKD
T1 sequence (P29466 317-404 limits assumed): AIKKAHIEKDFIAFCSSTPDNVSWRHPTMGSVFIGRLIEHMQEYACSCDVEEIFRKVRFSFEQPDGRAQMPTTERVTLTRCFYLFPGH
Nature of the assay: Purified protease assay, fluorescence (Caspase-1). Type of assay: biochemical. From the text:
(§1) . Product was quantified by fluorescence (n=2) (FIG. 19). Ac-YVAD-CHO and GM-6001 served as positive controls and were used at empirically determined IC50 concentrations.

The subject of the next assay is primary human monocytes. Nature of the assay: IL-1β secretion and IL-1β species in LPS-induced primary human monocytes (ELISA, western blotting). Type of assay: cell-based. As for the experimental part: Culture supernatants were analyzed for cytokine levels by ELISA (FIG. 16). […] Cell lysates were also analyzed for levels of IL-1β species by western blotting (FIG. 20).
Cells were treated with 1 mM ATP for 10 minutes. Culture supernatants were analyzed for IL-1β by ELISA (FIG. 18).
On the technique in general: An ELISA detects its analyte on a solid surface through an enzyme-linked reagent.

The target in assay [1] is TNFα converting enzyme (TACE) (Homo sapiens, UniProt P78536). Nature of the assay: Purified protease assay, fluorescence (TACE). Type of assay: biochemical.
Excerpt: as §1

For assay [2], the system named is oxazolone-induced topical inflammatory model in BALB/c mice. Kind of assay: Oxazolone-induced topical inflammatory model (ear swelling). The assay is classed as in vivo. As for the experimental part:
To this end, we utilized two mouse models of allergic contact dermatitis, which are schematically illustrated in FIG. 12. […] Afterwards, the difference in the thickness of each of the two ears was compared to measure the extent of swelling (ie. inflammation).
As a further test, vehicle or the indicated compounds were administered topically in 40 μl doses 30 minutes before and 15 minutes after a second challenge (25 μl/ear of 1% oxazolone in acetone) (n=6). Ear thickness was measured 24 hours after the second challenge with a Dyer model micrometer gauge.

Assay [3] deals with arachidonic acid-induced topical inflammatory model in BALE/c mice. Kind of assay: Arachidonic acid-induced topical inflammatory model (ear swelling). Type of assay: in vivo.

Values joined by “and” are separate entries in the source; they are usually repeats but may differ in a detail not shown here. Identical values can stand only once.

Sequence of TNFα converting enzyme (TACE) (P78536 215-824, species assumed): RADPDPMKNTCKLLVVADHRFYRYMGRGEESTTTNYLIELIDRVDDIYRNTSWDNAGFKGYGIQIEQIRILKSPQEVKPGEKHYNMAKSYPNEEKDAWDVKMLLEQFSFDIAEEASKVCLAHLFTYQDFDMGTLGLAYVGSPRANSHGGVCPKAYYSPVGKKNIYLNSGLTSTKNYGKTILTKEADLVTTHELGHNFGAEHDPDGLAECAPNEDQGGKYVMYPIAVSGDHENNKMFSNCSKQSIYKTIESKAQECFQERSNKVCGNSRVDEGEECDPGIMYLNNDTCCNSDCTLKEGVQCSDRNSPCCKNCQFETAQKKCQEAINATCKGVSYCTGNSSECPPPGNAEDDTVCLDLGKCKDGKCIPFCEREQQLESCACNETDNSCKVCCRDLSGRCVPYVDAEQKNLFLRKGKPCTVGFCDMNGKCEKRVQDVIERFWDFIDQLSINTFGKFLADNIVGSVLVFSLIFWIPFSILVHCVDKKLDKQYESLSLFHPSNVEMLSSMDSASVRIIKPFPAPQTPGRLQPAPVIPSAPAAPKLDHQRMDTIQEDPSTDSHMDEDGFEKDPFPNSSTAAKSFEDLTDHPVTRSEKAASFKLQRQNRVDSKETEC

Take `CC(=O)N[C@@H](Cc1ccc(O)cc1)C(=O)N[C@H](C(=O)N[C@@H](C)C(=O)N[C@H](C=O)CC(=O)O)C(C)C` [Ac-YVAD-CHO, reference compound]: the IC50 at Caspase-1 (positive control, read-out: empirically determined IC50 concentration, Caspase-1) came out at 20 nM.
In the case of `COc1ccc(Cn2ccc3ccc(C(=O)NO)cc32)cc1` [Compound 23, 1-(4-methoxy-phenylmethyl)-1H-indole-6-carboxylic acid hydroxyamide], the “pro-IL-1β levels in cell lysates, of control levels (densitometry)” value in the assay on primary human monocytes (2 μM lane) was 153%. Moreover, in the assay with primary human monocytes (10 μM lane), the “pro-IL-1β levels in cell lysates, of control levels (densitometry)” value is on record as 142%. Besides, the “direct inhibition of Caspase-1 protease” value on Caspase-1 (10 μM) is on record as “does not Directly Inhibit”. The “direct inhibition of TACE protease” value in assay [1] (10 μM) is on record as “does not Directly Inhibit”. Also, in assay [2] (1 mg/ear × 2, topical), the “Ear Thickness Net” value was 12.5 ± 1.8 0.01 mm. The “Ear Thickness Net” value in assay [2] (3 mg/ear × 2, topical) was 7.3 ± 0.3 0.01 mm. Besides, in assay [3] (1 mg), the “arachidonic acid-induced inflammation (in words)” value is listed as “reduced arachidonic acid-induced inflammation”. Further, in assay [3] (TOP, 1 mg/ear × 2), the “Ear thickness L. Ear, mean (X)” value is listed as 20.0 ×0.01 mm; the “Ear thickness Net, mean (X)” value is 9.7 ×0.01 mm; the “Ear thickness R. Ear, mean (X)” value was 29.7 ×0.01 mm. Also, in assay [3] (TOP, 1 mg/ear × 2, N 1-6), the “Ear thickness L. Ear, individual animals” value was 20 ×0.01 mm (4×) and 21 ×0.01 mm and 19 ×0.01 mm; the “Ear thickness Net, individual animals” value is 9 ×0.01 mm (3×) and 11 ×0.01 mm and 8 ×0.01 mm and 12 ×0.01 mm; the “Ear thickness R. Ear, individual animals” value was 29 ×0.01 mm (2×) and 32 ×0.01 mm (2×) and 28 ×0.01 mm (2×). In assay [3] (TOP, 3 mg/ear × 2), the “Ear thickness L. Ear, mean (X)” value was 20.5 ×0.01 mm; the “Ear thickness Net, mean (X)” value is 10.3 ×0.01 mm; the “Ear thickness R. Ear, mean (X)” value is given as 30.8 ×0.01 mm. In assay [3] (TOP, 3 mg/ear × 2, N 1-6), the “Ear thickness L. Ear, individual animals” value is 21 ×0.01 mm (4×) and 19 ×0.01 mm and 20 ×0.01 mm; the “Ear thickness Net, individual animals” value was 6 ×0.01 mm (2×) and 11 ×0.01 mm and 16 ×0.01 mm (2×) and 7 ×0.01 mm; the “Ear thickness R. Ear, individual animals” value is 27 ×0.01 mm (2×) and 32 ×0.01 mm and 35 ×0.01 mm and 36 ×0.01 mm and 28 ×0.01 mm.
In turn, `CNC(=O)[C@H](Cc1c[nH]c2ccccc12)NC(=O)[C@@H](CC(=O)NO)CC(C)C` [GM-6001, reference compound] returned an IC50 in assay [1] of 60 nM.
On to `COc1ccc2c(c1)c(CC(=O)O)c(C)n2C(=O)c1ccc(Cl)cc1` [Indomethacin, reference compound], for which the “Ear Thickness Net” value in assay [2] (0.3 mg/ear × 2, topical) is reported as 9.7 ± 1.0 0.01 mm. The “% Inhibition” value in assay [2] (0.3 mg/ear × 2, topical, relative to vehicle-treated control, ≧30% considered significant) is “(40) %”. In addition, in assay [3] (TOP, 3 mg/ear × 2), the “% Inhibition” value is “(62) %”; the “Ear thickness L. Ear, mean (X)” value stood at 20.2 ×0.01 mm; the “Ear thickness Net, mean (X)” value turned out to be 5.5 ×0.01 mm; the “Ear thickness R. Ear, mean (X)” value is 25.7 ×0.01 mm. Besides, in assay [3] (TOP, 3 mg/ear × 2, N 1-6), the “Ear thickness L. Ear, individual animals” value is 19 ×0.01 mm and 21 ×0.01 mm (2×) and 20 ×0.01 mm (3×); the “Ear thickness Net, individual animals” value is 7 ×0.01 mm and 4 ×0.01 mm and 6 ×0.01 mm (2×) and 5 ×0.01 mm (2×); the “Ear thickness R. Ear, individual animals” value is 26 ×0.01 mm (4×) and 25 ×0.01 mm (2×).
